Source: article PMC10895668, “Lead Optimization of the 5-Phenylpyrazolopyrimidinone NPD-2975 toward Compounds with Improved Antitrypanosomal Efficacy” (Journal of Medicinal Chemistry, 2024)
Read-outs that look alike come from different tables or passages of the source. Each block holds one compound with its values, some of them ahead of it.

How the values were obtained:
[1] = tested on: Trypanosoma cruzi; assay: Antiparasitic assay, T. cruzi; format: cell-based; settings: mean ± SD, n ≥ 2, read-out: pIC50 T. cruzi (converted)
Procedure: (§1) First, they were tested in vitro against the protozoan species Trypanosoma cruzi and Leishmania infantum and the clinically relevant T. b. rhodesiense.
(§2) The antiparasitic assays were carried out exactly as described in Blaazer et al.([39]) Metabolic stability, pharmacokinetics, acute mouse infection model results were collected as described previously.[21] All animal experiments were conducted in compliance with institutional guidelines and following approval by the Ethical Committee of the University of Antwerp, Belgium [UA-ECD 2014–96]. Female Swiss mice (15–20 g), were purchased from Janvier (Le Genest Saint Isle, France). […] Animals were treated PO b.i.d. for 5 days at 25 and 50 mg/kg 31c. For the SL-RNA qPCR experiments blood was collected sublingually and subjected to erythrocyte lysis before extracting RNA with the QIAamp RNA Blood Mini kit (Qiagen). […] Small pieces of fat, brain, and spleen tissue were excised and immediately transferred to RNA later (Qiagen) and incubated overnight at 4 °C. RNA extraction was performed as instructed in the RNeasy Mini Plus Kit manual (Qiagen). The one-step SensiFAST SYBR Hi-Rox PCR kit (Bioline USA Inc., via Gentaur Belgium BVBA, Kampenhout, Belgium) was used for the PCR with the following forward and reverse primers, respectively 5′-[…]-3′ and 5′-[…]-3′. […]

[2] = tested on: T. b. rhodesiense; assay: Trypanosoma susceptibility assay (resazurin viability); format: cell-based; settings: Trypanosoma brucei, mean ± SD, n ≥ 2, read-out: pIC50 T. b. rhodesiense (converted)
Procedure: The antiparasitic assays were carried out exactly as described in Blaazer et al.([39]) Metabolic stability, pharmacokinetics, acute mouse infection model results were collected as described previously.[21] All animal experiments were conducted in compliance with institutional guidelines and following approval by the Ethical Committee of the University of Antwerp, Belgium [UA-ECD 2014–96]. Female Swiss mice (15–20 g), were purchased from Janvier (Le Genest Saint Isle, France). […] Animals were treated PO b.i.d. for 5 days at 25 and 50 mg/kg 31c. For the SL-RNA qPCR experiments blood was collected sublingually and subjected to erythrocyte lysis before extracting RNA with the QIAamp RNA Blood Mini kit (Qiagen). […]
Parasites were counted in a KOVA counting chamber and diluted to 1.5 × 10^4 parasites/well of a 96-well plate (200 μL total volume), upon which the prediluted test compounds were added. […] After 3 days of incubation, parasite growth was assessed fluorimetrically after addition of 50 μL of resazurin per well. After 6 h (T. b. rhodesiense) or 24 h (T. b. brucei) at 37 °C, fluorescence is measured (λex 550 nm, λem 590 nm). Parasite viability was assessed using the resazurin viability assay, and drug activity was calculated as percentage viability reduction compared to nontreated controls.

[3] = tested on: MRC-5 cells; assay: MRC-5SV2 cytotoxicity assay; format: cell-based; settings: Homo sapiens, MRC5, 72 h; cytotoxicity, 3 days incubation; mean ± SD, n ≥ 2; read-out: pIC50 MRC-5 (converted)
Procedure: The synthesized analogues were tested against T. b. brucei, and inhibition of MRC-5 (human lung fibroblasts MRC-5SV40) cell proliferation was included as cytotoxicity control. […] Analogue 17 with an amino group instead of the carbonyl group was prepared to improve solubility for further modification. […] In vitro experiments were carried out with the bloodstream form of the T. b. brucei Squib strain (suramin-sensitive). […] All cultures and assays were conducted at 37 °C under an atmosphere of 5% CO2. […] Cell growth is compared to untreated-control wells (100% cell growth) and medium-control wells (0% cell growth). […] After 4 h at 37 °C, fluorescence is measured (λex 550 nm, λem 590 nm). The results are expressed as % reduction in cell growth/viability compared to control wells and an IC50 and an IC90 (50 and 90% inhibitory concentrations) are determined.

[4] = tested on: peritoneal mouse macrophages (PMM); assay: Cytotoxicity on peritoneal mouse macrophages; format: cell-based; settings: Macrophage, n ≥ 2
[5] = mouse, microsomes
[6] = tested on: Leishmania infantum; assay: Antiparasitic assay, L. infantum; format: cell-based; settings: mean ± SD, n ≥ 2, read-out: pIC50 L. infantum (converted)
Procedure: as §1, §2

[7] = tested on: T. b. brucei; assay: Trypanosoma susceptibility assay (resazurin viability); format: cell-based; settings: for IC50: Trypanosoma brucei
Procedure: (§3) The antiparasitic assays were carried out exactly as described in Blaazer et al.([39]) Metabolic stability, pharmacokinetics, acute mouse infection model results were collected as described previously.[21] All animal experiments were conducted in compliance with institutional guidelines and following approval by the Ethical Committee of the University of Antwerp, Belgium [UA-ECD 2014–96]. Female Swiss mice (15–20 g), were purchased from Janvier (Le Genest Saint Isle, France). […] Animals were treated PO b.i.d. for 5 days at 25 and 50 mg/kg 31c. For the SL-RNA qPCR experiments blood was collected sublingually and subjected to erythrocyte lysis before extracting RNA with the QIAamp RNA Blood Mini kit (Qiagen). […] Small pieces of fat, brain, and spleen tissue were excised and immediately transferred to RNA later (Qiagen) and incubated overnight at 4 °C. RNA extraction was performed as instructed in the RNeasy Mini Plus Kit manual (Qiagen). The one-step SensiFAST SYBR Hi-Rox PCR kit (Bioline USA Inc., via Gentaur Belgium BVBA, Kampenhout, Belgium) was used for the PCR with the following forward and reverse primers, respectively 5′-[…]-3′ and 5′-[…]-3′. An initial activation step of 10 min at 45 °C and 10 min at 95 °C was used, followed by the amplification step for 40 cycles (15 s at 95 °C, 15 s 50 °C and 15 s at 60 °C). At last, the melting curves were generated with an increment of 0.3 °C (15 s at 95 °C 1 min at 45 °C and 15 s at 95 °C). The PCR was run on the Step One Plus real-time PCR system (Applied Biosystems, California, USA). An additional qPCR was performed with the mouse housekeeping gene Eef2 to confirm successful RNA extraction.
In vitro experiments were carried out with the bloodstream form of the T. b. brucei Squib strain (suramin-sensitive). Parasites were routinely cultured in T25 culture flasks containing 10 mL of HMI-9 medium (Invitrogen) supplemented with 10% heat-inactivated fetal bovine serum (Life Technologies) and 2.5 μg/mL Geneticin (Life Technologies). MRC-5SV2 cells were cultured in MEM + Earl’s salts-medium, supplemented with 2 mM L-glutamine, 16.5 mM NaHCO3, and 5% inactivated fetal calf serum. All cultures and assays were conducted at 37 °C under an atmosphere of 5% CO2.
Parasites were counted in a KOVA counting chamber and diluted to 1.5 × 10^4 parasites/well of a 96-well plate (200 μL total volume), upon which the prediluted test compounds were added. Drug exposure covered a 72 h period without renewal of the culture medium. After 3 days of incubation, parasite growth was assessed fluorimetrically after addition of 50 μL of resazurin per well. After 6 h (T. b. rhodesiense) or 24 h (T. b. brucei) at 37 °C, fluorescence is measured (λex 550 nm, λem 590 nm). Parasite viability was assessed using the resazurin viability assay, and drug activity was calculated as percentage viability reduction compared to nontreated controls.

[8] = human, microsomes, 1 h
[9] = tested on: MRC-5 cells; settings: Figure 1; previously reported series ref 21; cited from earlier work
[10] = in vivo; settings: female, Swiss, mouse, in vivo
Procedure: as §3
Blood drops were sampled before treatment and at 0.5, 1, 2, 4, 6, and 24 h after PO dosage; samples after IP dosage were identical with an additional time point of 0.25 h. The blood drops were analyzed adopting the dry blood spot technique and analysis by LC-MS^2. Briefly, blood was collected from the retro-orbital complex using capillary tubes and dropped (15 μL) on WhatmanFTADMPK cards (B). The spots were left to air-dry at room temperature for at least 2 h. For analysis, a 6 mm disk was punched out and extracted in 75:25 MeCN/water containing the internal standard tolbutamide. The amount of parent compound was determined using liquid chromatography (UPLC) (Waters Aquity) coupled with tandem quadrupole mass spectrometry (MS^2) (Waters Xevo) equipped with an electrospray ionization (ESI) interface and operated in multiple reaction monitoring mode. Standard curves in whole blood were made for calibration and validation. Standard PK parameters were determined using Topfit software.
Brain tissue of the animals was collected on ice at autopsy 24 h post-treatment (50 mg/kg oral dose) after perfusion. […] The tissues were immediately homogenized using a GentleMacs tissue homogenizer. The tissue samples were subjected to protein precipitation by adding MeCN, followed by a centrifugation step at 4 °C for 5 min at 21, 130 g. The supernatant was further diluted in 75:25 MeCN/water for LC-MS^2 analysis as described above.

[11] = tested on: T. b. brucei; design: method as in PMID 37471520; settings: previous in vivo results ref 21, cited from earlier work
[12] = tested on: T. b. brucei; settings: 10 mg/kg IP s.i.d. for 5 days, positive control, n = 3
Procedure: as §3
Mice were allocated to groups of three and were infected by IP injection of 10^4T. brucei Squib 427 trypomastigotes. […] Suramin was included as a reference for T. brucei and injected IP s.i.d. for 5 days at 10 mg/kg. A PEG400 vehicle control group was also included. […] The first treatment was given 30 min prior to the artificial infection. Drug efficacy was evaluated by microscopic determination of the parasitemia in a blood drop collected from the tail vein at several time points until 63 days postinfection (dpi). […] An SL-RNA qPCR assay was performed in all surviving animals to confirm parasitological cure. For the SL-RNA qPCR, peripheral blood was subjected to erythrocyte lysis before extracting RNA with the QIAamp RNA Blood Mini kit (Qiagen). […] Small pieces of fat, brain, and spleen tissues were excised and immediately transferred to RNA later (Qiagen) and incubated overnight at 4 °C. RNA extraction was performed as instructed in the RNeasy Mini Plus Kit manual (Qiagen). […]

[13] = 72 h, T. b. brucei Squib bloodstream form, 72 h exposure, mean ± SD, n ≥ 2, read-out: pIC50 T. brucei (converted)

- IC50 [1]: > 63.1 µM
- IC50 [2]: 0.01 µM
- time within which compound was metabolized [5]: ≤ 15 min
- parent compound remaining ([5]; 1 h): at least 69%
- IC50 [6]: > 63.1 µM
- IC50 [7, 13]: 0.01 µM
- parent compound remaining [8]: at least 69%
SMILES: O=c1[nH]c(-c2ccc(F)cc2)nc2c(C3CCCC3)n[nH]c12 [31a, 3-Cyclopentyl-5-(4-fluorophenyl)-1,6-dihydro-7H-pyrazolo[4,3-d]pyrimidin-7-one]
- IC50 [3]: > 63.1 µM
- IC50 [4]: > 63.1 µM
- improved potency compared to 2 ([7]; T. brucei, versus compound 2): 6 fold

SMILES: CC(C)c1n[nH]c2c(=O)[nH]c(Cc3ccccc3)nc12 [compound 1, reference compound]
- MRC-5 pIC50 [9]: < 4.2

SMILES: CC(C)c1n[nH]c2c(=O)[nH]c(-c3ccc(F)cc3)nc12 [compound 2]
- MRC-5 pIC50 [9]: < 4.2
- IC50 [3]: > 63.1 µM
- IC50 [4]: > 63.1 µM
- Tmax at 24 h ([10]; ip, 10 mg/kg): 0.25 h
- Tmax at 24 h ([10]; po, 50 mg/kg): 3 ± 1.5 h
- survival ([11]; 25 mg/kg group): all animals died at 11 days postinfection
- survival ([11]; 50 mg/kg dose): all animals survived until the end of the experiment

- IC50 [7, 13]: 0.631 µM
- IC50 ([7]; read-out: IC50 against T. brucei): 0.8 µM
SMILES: CC(C)c1nn(CCO)c2c(=O)[nH]c(-c3ccc(F)cc3)nc12 [compound 22, 5-(4-Fluorophenyl)-1-(2-hydroxyethyl)-3-isopropyl-1,6-dihydro-7H-pyrazolo[4,3-d]pyrimidin-7-one]
- IC50 [3]: > 63.1 µM

- pIC50 T. brucei ([7]; T. b. brucei Squib bloodstream form, 72 h exposure, mean ± SD, n ≥ 2): 7.3 ± 0.1
- IC50 [7, 13]: < 0.1 µM
SMILES: O=c1[nH]c(-c2ccc(F)cc2)nc2c(-c3ccccc3)n[nH]c12 [compound 35, 5-(4-Fluorophenyl)-3-phenyl-1,6-dihydro-7H-pyrazolo[4,3-d]pyrimidin-7-one]
- IC50 [3]: > 63.1 µM
- potency lower compared to 31a ([7]; T. brucei, versus compound 31a): 4 fold

SMILES: Cc1ccc(C(=O)Nc2ccc(S(=O)(=O)O)c3cc(S(=O)(=O)O)cc(S(=O)(=O)O)c23)cc1NC(=O)c1cccc(NC(=O)Nc2cccc(C(=O)Nc3cc(C(=O)Nc4ccc(S(=O)(=O)O)c5cc(S(=O)(=O)O)cc(S(=O)(=O)O)c45)ccc3C)c2)c1 [suramin, reference compound]
- survival [12]: survived throughout the 60 days postinfection follow-up period without relapse
